Assay [1] relates to DLD-1 (human colorectal cancer cells). As to the kind of experiment: In vivo tumor growth inhibition, DLD-1 xenograft. Details: species or system BALB/c nude mice. The note with it: for TGI %: combination studies (Examples 9, 11). The method, then:
DLD-1 (human colorectal cancer cells): Female 6-8 weeks old BALB/c nude mice were inoculated subcutaneously on the right flank with DLD-1 tumor cells (5×10^6) in 0.1 ml of RPMI1640 medium without serum for tumor development. The treatments were started when the mean tumor size reached approximately 195 mm^3 at Day 7 post inoculation and continued until end of study by twice daily oral gavage dosing of HC-7366 at listed doses (vehicle, 0.3 mg/kg HC-7366, 1 mg/kg HC-7366, 3 mg/kg HC-7366, 10 mg/kg HC-7366, or 30 mg/kg HC-7366, FIG. 10). For the time course study, tumors were harvested at Days 4, 7 and 14. Tumors were then used for IHC and RNAseq experiments (see Example 21).
(§1) [formula] • 2.2.2 Tumor Measurements: The measurement of tumor size was conducted three times weekly with a caliper and recorded. The tumor volume (mm^3) was estimated using the formula: TV=a×b^2/2, where “a” and “b” is long and short diameters of a tumor, respectively. Tumor volume was calculated using the formula [tumor volume (mm^3)=π/6×length×width^2).
(§2) Regression was calculated using the formula=100×ΔT/T initial, if ΔT<0. Animals with 0 mm^3 tumor volume (no measurable tumor) for three consecutive measurements were considered as complete responders and animals with 50% tumor regressions were partial responders.
The effect of DC101 in combination with HC-7366 in DLD-1 tumor-bearing mice was evaluated using protocols analogous to those described in Example 6. Mice were treated with 3 or 30 mg/kg HC-7366, twice daily by oral gavage. DC101 was administered at 20 mg/kg twice weekly and with twice daily dosing via intraperitoneal injection.
The effect of 5-fluorouracil in combination with HC-7366 in DLD-1 tumor-bearing mice was evaluated using protocols analogous to those described in Example 6. Mice were treated with 3 or 30 mg/kg HC-7366, twice daily by oral gavage. 5-fluorouracil was administered at 75 mg/kg once a week, twice daily via intravenous injection.

For assay [2], the system named is MOLM-16 (human AML cells). The assay can be described thus: In vivo tumor growth inhibition, MOLM-16 xenograft. Details: species or system NOD SCID mice. The method, then:
MOLM-16 (human AML cells): Female 6-8 weeks old nonobese diabetic/severe combined immunodeficiency (NOD SCID) mice were inoculated subcutaneously on the right flank with MOLM-16 tumor cells (1×10^7) in RPMI 1640 without serum for tumor development. The treatments were started when the mean tumor size reached approximately 220 mm^3 at Day 14 after cell inoculation and continued until end of study by twice daily oral gavage dosing of HC-7366 at listed doses (vehicle, 0.25 mg/kg HC-7366, 0.5 mg/kg HC-7366, 1 mg/kg HC-7366, or 2 mg/kg HC-7366, FIG. 16)
as §1, §2

For assay [3], the system named is ASNS, PHGDH, PUMA, PSAT1, S100A8/A9 in MV4-11 tumors. As to the kind of experiment: Tumor IHC, MV4-11 tumors (venetoclax combination study). It is filed as in vivo, BALB/c nude mice. The note with it: end-of-study tumors. The method, then: Immunohistochemical analysis was carried out on tumors that were collected at the end of the study described in Example 6. Formalin-fixed paraffin-embedded samples were sectioned at 5 μm thickness and mounted on Superfrost Plus microscope slides (Fisher Scientific). All immunohistochemical (IHC) staining was performed on Bond Rx auto-stainer (Leica Biosystems) using the conventional TSA-amplified detection system. Primary antibodies used were as follows: a-ASNS (Cell Signaling Technology #92479), a-PUMA (Cell Signaling Technology #98672), a-PSAT1 (Proteintech #10501-1-AP), a-PHGDH (Proteintech #14719-1-AP), HIF-1a-Novus Biologicals NB 100-479, HIF-2a-Novus Biologicals NB100-122SS, and GLUT-1-EMB Biosciences 07-1401. TSA-conjugated Alexa488, Alexa 568 and Alexa647 fluorophores from Invitrogen (#B40953, #B40956, and #B40958) were used at 1:500 dilution. Slides were counterstained with DAPI and cover slipped using Mowiol anti-fade mounting media (Sigma #D2522).
Slides were imaged with Aperio Versa 200 (Leica Biosystems) whole-slide scanner using 10×/0.32NA objective, and the data were analyzed using custom-written macros in ImageJ/FIJI (NIH). Briefly, 150 μm of outer edges of the tumor sections and necrotic regions (determined by lack of 4′,6-diamidino-2-phenylindole (DAPI) signal or presence of condensed DNA) were eliminated from the analysis. Gaussian-blurred DAPI channel was used to measure the area of the tumor tissue. Scans of immune-staining were processed to remove background, then total intensity value above appropriate threshold levels was measured and normalized to tissue area. All graphing and statistics (one-way ANOVA and pair-wise comparisons) were performed using Prism GraphPad.
Slides were deparaffinized, rehydrated and heat mediated antigen retrieval was conducted with AR6 buffer (Akoya). Slides were blocked with Roche diagnostics antibody diluent (Fisher) and stained with primary antibodies for 1 hr at 110 rpm. After washing, horseradish peroxidase (HRP)-conjugated secondary antibodies were added for 10 mins at 110 rpm. After washing, OPAL detection dye (Akoya) was added for a static 10 min incubation. Antigen retrieval was performed post OPAL staining, followed by DAPI staining and slide covering. Multispectral images were captured on the Polaris imaging system (Akoya) and spectral unmixing, cell segmentation and phenotyping was performed using Inform Tissue Finder software (Akoya). Imaging data was converted into .csv files and imported into Flowjo for analysis of S100A8/A9 percent positive cells. Primary antibodies used were rabbit anti-human/mouse S100A8/A9 (Clone RM1038, Abcam ab288715, paired with Opal 570).
Immunohistochemical analysis was performed on the tumors according to the procedures described in Example 7.

Assay [4] has as its system newly synthesized proteins. As to the kind of experiment: Puromycin labeling of newly synthesized proteins. It is filed as cell-based. The conditions noted are these: 100 nM.
In the next assay the test system is FaDu tumors and plasma. The assay can be described thus: Metabolomic analysis of tumor and plasma, FaDu tumor bearing mice. Format: in vivo. The method, then:
FaDu tumor bearing mice were treated with vehicle or HC-7366 (1, 3, or 30 mg/kg) twice a day orally for three days, and on the morning of Day 4 an AM dose was administered and tumors and plasma were collected 1 hr after dose. Tumor and plasma samples were extracted and split into equal parts for analysis on LC/MS/MS and Polar LC platforms. Proprietary software was used to match ions to an in-house library of standards for metabolite identification and for metabolite quantitation by peak area integration (Metabolon). Proteomic analysis on tumors was performed at MS Bioworks. The equivalent of 3 μg of peptide from each pooled fraction was analyzed by nano LC-MS/MS with a Waters M-Class HPLC system interfaced to a ThermoFisher Fusion Lumos mass spectrometer. Histograms show metabolite levels of treatment groups normalized to vehicle control (FIGS. 115-122).

Setting [5] is: HC-7366 3 mg/kg, alone or with venetoclax.

Regarding `CNC(=O)c1ncn2cc(-c3c(F)ccc(NS(=O)(=O)c4cc(Cl)cnc4OC)c3F)ncc12` [HC-7366, 6-(3-((5-chloro-2-methoxypyridine)-3-sulfonamido)-2,6-difluorophenyl)-N-methylimidazo[1,5-a]pyrazine-1-carboxamide], the tumor growth inhibition in assay [1] (1 mg/kg and 3 mg/kg twice daily oral) is listed as ~78%. Further, the TGI % in assay [1] (HC-7366 3 mg/kg twice daily oral) is reported as ~65%. Also, the TGI % in assay [1] (HC-7366 30 mg/kg twice daily oral) is given as ~21%. Further, the “effect on xenograft tumors” value in assay [2] (2 mg/kg twice daily oral) is reported as “complete eradication”. In addition, in assay [2] (other doses (0.25, 0.5, 1 mg/kg twice daily)), the “effect on xenograft tumors” value was “tumor growth inhibition”. Also, the PSAT1 levels result in assay [3] was “did not change”. For the same compound, in assay [3] (setting [5]), the “ASNS by IHC” value is “potent activation”, the “PHGDH by IHC” value is given as “potent activation” and the “PUMA by IHC” value is reported as “potent activation”. Moreover, in assay [3] (single agents and combination), the S100A8/A9 levels entry is on record as “significantly reduced”. In assay [4], the “puromycin labeling of newly synthesized proteins” value is given as “potently reduced”. In addition, the urea levels result in the assay on FaDu tumors and plasma (plasma) is reported as “significantly increased”. In addition, in the assay on FaDu tumors and plasma (tumor), the oxidized glutathione levels result is listed as “significantly reduced” and the reduced glutathione levels entry is “did not alter”. In addition, the “gamma glutamyl amino acid levels” value in the assay on FaDu tumors and plasma (tumor and plasma) is on record as “significantly increased”. Moreover, in the assay with FaDu tumors and plasma (tumor and plasma, 1, 3, or 30 mg/kg twice a day, Day 4), the “levels of several amino acids” value was “significantly elevated”. Further, in the assay with FaDu tumors and plasma (tumors), the “levels of arginine, arginosuccinate and citrulline” value was “significantly increased”; the pyrimidine synthesis metabolites entry is listed as “significantly reduced”.

The values are drawn from patent US20250339426A1, “GCN2 MODULATOR FOR TREATING CANCER” (HIBERCELL, INC., priority 2022, published 2025).
